Assays:
[1] = test system: histamine-induced mortality; assay: Effect on the Mortality Induced by Histamine; format: in vivo, male albino guinea pigs (Dunkin-Hartley); conditions: Cavia porcellus, po; guinea pig, p.o. 60 minutes before 1,25 mg/kg i.v. histamine dihydrochloride; amount inhibiting 50% of mortality
Procedure: Effect on the Mortality Induced by Histamine
The method described by Romer D. et al. (Med. Welt, 17, 791, 1966) was followed and the tests were carried out on male albino guinea pigs (Dunkin-Hartley), weighing 350-450 g, which were kept in cages with a grid floor, on an empty stomach for 24 hrs with water ad libitum.
The compounds under examination were dissolved in 0.5% carboxy methylcellulose and orally administered to the animals 60 minutes before that the same animals were intravenously treated with 1,25 mg/kg of histamine dihydrochloride dissolved in saline solution. In the control animals, treated with carboxymethyl cellulose, the histamine dihydrochloride solution, intravenously administered, induced a 100% mortality.
It was evaluated ED50 which corresponds to the amount of the compound able to inhibit 50% of the mortality induced by histamine: the estimation of ED50 was carried out applying the `probit` method (Finney D. J., Statistical methods in biological assay, pg 512, 1957).

[2] = test system: sleeping time induced by pentobarbital; assay: Effect on the Sleeping Time Induced by Pentobarbital; format: in vivo, male mice Swiss-Nos; conditions: mouse, 25 mg/kg i.p. 30 minutes before 40 mg/kg i.p. sodium pentobarbital; increase vs control group
Procedure: Effect on the Sleeping Time Induced by Pentobarbital The tests were carried out on male mice Swiss-Nos (Nossan, Correzzana, Milano) weighing 20-24 g, on an empty stomach for 18 hrs, according to the method described by R. Turner (Screening Methods in Pharmacology, Acad. Press, pg 70, 1965). […] The narcosis start was considered from the moment when the animal, lying on its back, lost its straightening reflex. The narcosis end was considered from the moment when the animal recovered such reflex. The carrier or the compounds under examination were administered by intraperitoneal route at the dose 25 mg/kg, 30 minutes before the pentobarbital administration. The resulting data are expressed as sleeping time increase percent in the treated animal group in comparison to the control animal group.

[3] = Evaluation of the Lethal Dose50 (LD50), acute toxicity; conditions: in vivo, ip; mouse, 14 days observation, probit method
Procedure: Evaluation of the Lethal Dose50 (LD50)
The tests were carried out on Swiss Nos (Nossan; Correzzana, Milano) mice weighing 18-20 g each. The animals, divided into groups of 10 animals each (5M+5F), were on an empty stomach for 18 hrs, with water ad libitum, and kept in cages with a grid floor. The compounds (I) were dissolved in water or suspended in 0.5% carboxymethylcellulose and intraperitoneally administered to the animals (10 ml/kg). The number of mice which died within the following 6 hours was recorded. Upon the expiry of the sixth hour, the animals were allowed to eat up to the end of the experimentation which lasted 14 days. During this period all the toxic symptoms and the mortality occurring were noted.
The animals which died during the test period and those which were sacrificed at the end of the same, underwent autopsy for a macroscopic examination of their main organs. The experimental data were statistically compared with the X^2 method and LD50 was extrapolated by the `probit` method.

Structure (SMILES)	ED50 [1]	Increase of sleeping time induced by pentobarbital [2]	LD50 at 336 h [3]
CN1CCN(c2nc3cccnc3n2Cc2ccccc2)CC1.O=C(O)/C=C/C(=O)O [Example 1, 3-Benzyl-2-(4-methylpiperazin-1-yl)-3H-imidazo[4,5-b]pyridine fumarate]	0.033 mg/kg	183%	> 100 mg/kg
CN(C)CCNc1nc2cccnc2n1Cc1ccccc1.Cl.Cl [Example 2, 3-Benzyl-2-(2-dimethylaminoethylamino)-3H-imidazo[4,5-b]pyridine dihydrochloride]		76%	> 100 mg/kg
CC(C)(C)c1ccc(C(O)CCCN2CCC(C(O)(c3ccccc3)c3ccccc3)CC2)cc1 (stereo not drawn) [Terfenadine, reference compound]		44%	

— US5023256A, “Pharmacologically active aminoimidazopyridines” (Dompe Farmaceutici S.p.A., priority 1989, dated 1991)
